Laboratory results: ChEMBL document CHEMBL3817834, “Scaffold morphing leading to evolution of 2,4-diaminoquinolines and aminopyrazolopyrimidines as inhibitors of the ATP synthesis pathway” (Medchemcomm, 2016)
In brackets after ≈: the same amount, converted by molar mass.

Key:
Type in all cases: functional
[1] = tested on: Mycobacterium tuberculosis; experiment: Antimycobacterial activity against streptomycin resistant Mycobacterium tuberculosis isolate 35820 by turbidometric method
[2] = tested on: Mycobacterium tuberculosis; experiment: Antimycobacterial activity against isoniazid resistant Mycobacterium tuberculosis isolate 35822 by turbidometric method
[3] = tested on: Mycobacterium tuberculosis; experiment: Antimycobacterial activity against rifampicin resistant Mycobacterium tuberculosis isolate 19000 by turbidometric method
[4] = tested on: Mycobacterium tuberculosis; experiment: Antimycobacterial activity against ethambutol resistant Mycobacterium tuberculosis isolate 17003 by turbidometric method
[5] = tested on: Mycobacterium tuberculosis; experiment: Antimycobacterial activity against ofloxacin resistant Mycobacterium tuberculosis isolate 12119 by turbidometric method
[6] = tested on: Mycobacterium tuberculosis; experiment: Antimycobacterial activity against bedaquiline resistant Mycobacterium tuberculosis harboring I66M mutant by turbidometric method
[7] = tested on: Mycobacterium tuberculosis; experiment: Antimycobacterial activity against bedaquiline resistant Mycobacterium tuberculosis harboring A63P mutant by turbidometric method

With `CN(C)CCOc1ncc(Nc2cc(-c3ccccc3)nc3cc(-c4ccc(F)cc4)[nH]c23)cc1F` the MIC80 [1] was 25 µM (≈ 12.1 µg/mL), the MIC80 [2] was 3.1 µM (≈ 1.51 µg/mL) and the MIC80 [3] was 3.1 µM (≈ 1.51 µg/mL). For the same compound, the MIC80 [4] was 6.3 µM (≈ 3.06 µg/mL), the MIC80 [5] was 25 µM (≈ 12.1 µg/mL) and the “MIC=>80” value [6] was 3.1 µM (≈ 1.51 µg/mL). The “MIC=>80” value [7] was 3.1 µM (≈ 1.51 µg/mL).

With `CO[C@H]1/C=C/O[C@@]2(C)Oc3c(C)c(O)c4c(O)c(c(/C=N/N5CCN(C)CC5)c(O)c4c3C2=O)NC(=O)/C(C)=C\C=C\[C@H](C)[C@H](O)[C@@H](C)[C@@H](O)[C@@H](C)[C@H](OC(C)=O)[C@@H]1C` [RIFAMPIN] the MIC80 [1] was 0.04 µM (≈ 0.0329 µg/mL), the MIC80 [2] was 0.04 µM (≈ 0.0329 µg/mL) and the MIC80 [3] was > 1.2 µM. The MIC80 [4] was 0.04 µM (≈ 0.0329 µg/mL), the MIC80 [5] was 0.04 µM (≈ 0.0329 µg/mL) and the “MIC=>80” value [6] was 0.04 µM (≈ 0.0329 µg/mL). For the same compound, the “MIC=>80” value [7] was 0.04 µM (≈ 0.0329 µg/mL).

With `CN(C)CCOc1ncc(Nc2cc(N3CCC(c4ccccc4Cl)C3)nc3cc(F)c(F)cc23)cc1F` (stereo not given) the MIC80 [1] was 25 µM (≈ 13.6 µg/mL), the MIC80 [2] was 3.1 µM (≈ 1.68 µg/mL) and the MIC80 [3] was 3.1 µM (≈ 1.68 µg/mL). For the same compound, the MIC80 [4] was 6.3 µM (≈ 3.41 µg/mL), the MIC80 [5] was 25 µM (≈ 13.6 µg/mL) and the “MIC=>80” value [6] was 3.1 µM (≈ 1.68 µg/mL). For the same compound, the “MIC=>80” value [7] was 3.1 µM (≈ 1.68 µg/mL).

For `NNC(=O)c1ccncc1` [ISONIAZID], the MIC80 [1] was 0.2 µM (≈ 0.0274 µg/mL), the MIC80 [2] was > 15 µM and the MIC80 [3] was 0.2 µM (≈ 0.0274 µg/mL). The MIC80 [4] was 0.2 µM (≈ 0.0274 µg/mL), the MIC80 [5] was 0.2 µM (≈ 0.0274 µg/mL) and the “MIC=>80” value [6] was 0.2 µM (≈ 0.0274 µg/mL). The “MIC=>80” value [7] was 0.2 µM (≈ 0.0274 µg/mL).

In the case of `COc1nc2ccc(Br)cc2cc1[C@@H](c1ccccc1)[C@@](O)(CCN(C)C)c1cccc2ccccc12` [BEDAQUILINE], the MIC80 [1] is reported as < 2 µM, the MIC80 [2] is reported as < 2 µM and the MIC80 [3] is reported as < 2 µM. For the same compound, the MIC80 [4] was < 2 µM, the MIC80 [5] was < 2 µM and the “MIC=>80” value [6] was 10 µM (≈ 5.56 µg/mL). The “MIC=>80” value [7] was >10 µM.

`CN(C)CCOc1ncc(Nc2cc(-c3ccccc3)nc3cc(-c4ccc(F)cc4)nn23)cc1F` gave an MIC80 [1] of 25 µM (≈ 12.2 µg/mL), an MIC80 [2] of 12.5 µM (≈ 6.08 µg/mL) and an MIC80 [3] of 6.3 µM (≈ 3.07 µg/mL). The MIC80 [4] was 6.3 µM (≈ 3.07 µg/mL), the MIC80 [5] was 12.5 µM (≈ 6.08 µg/mL) and the “MIC=>80” value [6] was 6.3 µM (≈ 3.07 µg/mL). The “MIC=>80” value [7] was 12.5 µM (≈ 6.08 µg/mL).

Work on `CC1COc2c(N3CCN(C)CC3)c(F)cc3c(=O)c(C(=O)O)cn1c23` (stereo not given) [OFLOXACIN] yielded an MIC80 [1] of 0.7 µM (≈ 0.253 µg/mL), an MIC80 [2] of 0.7 µM (≈ 0.253 µg/mL) and an MIC80 [3] of 0.7 µM (≈ 0.253 µg/mL). For the same compound, the MIC80 [4] was 0.3 µM (≈ 0.108 µg/mL), the MIC80 [5] was > 5.6 µM and the “MIC=>80” value [6] was 0.7 µM (≈ 0.253 µg/mL). The “MIC=>80” value [7] was 0.7 µM (≈ 0.253 µg/mL).

With `COc1cc2nc(N3CCC(c4ccccc4Cl)C3)cc(Nc3cnc(OCCN(C)C)c(F)c3)c2cc1OC` (stereo not given) the MIC80 [1] was 12.5 µM (≈ 7.08 µg/mL), the MIC80 [2] was 6.3 µM (≈ 3.57 µg/mL) and the MIC80 [3] was 3.1 µM (≈ 1.75 µg/mL). For the same compound, the MIC80 [4] was 6.3 µM (≈ 3.57 µg/mL), the MIC80 [5] was 12.5 µM (≈ 7.08 µg/mL) and the “MIC=>80” value [6] was 6.3 µM (≈ 3.57 µg/mL). For the same compound, the “MIC=>80” value [7] was 3.1 µM (≈ 1.75 µg/mL).

With `CN[C@@H]1[C@H](O[C@H]2[C@H](O[C@H]3[C@H](O)[C@@H](O)[C@H](N=C(N)N)[C@@H](O)[C@@H]3N=C(N)N)O[C@@H](C)[C@]2(O)C=O)O[C@@H](CO)[C@H](O)[C@H]1O` [STREPTOMYCIN] the MIC80 [1] was > 11 µM, the MIC80 [2] was 0.3 µM (≈ 0.174 µg/mL) and the MIC80 [3] was 0.3 µM (≈ 0.174 µg/mL). The MIC80 [4] was 0.3 µM (≈ 0.174 µg/mL), the MIC80 [5] was 0.3 µM (≈ 0.174 µg/mL) and the “MIC=>80” value [6] was 0.3 µM (≈ 0.174 µg/mL). For the same compound, the “MIC=>80” value [7] was 0.3 µM (≈ 0.174 µg/mL).

Work on `CC[C@@H](CO)NCCN[C@@H](CC)CO` [ETHAMBUTOL] yielded an MIC80 [1] of 9.8 µM (≈ 2 µg/mL), an MIC80 [2] of 9.8 µM (≈ 2 µg/mL) and an MIC80 [3] of 9.8 µM (≈ 2 µg/mL). The MIC80 [4] was > 20 µM, the MIC80 [5] was 4.9 µM (≈ 1 µg/mL) and the “MIC=>80” value [6] was 9.8 µM (≈ 2 µg/mL). The “MIC=>80” value [7] was 9.8 µM (≈ 2 µg/mL).
